From patent US8592456B2 (4SC Discovery GmbH, priority 2011, dated 2013)
Like-named read-outs stand apart in the source and are kept apart here.

System: PBMC (T cell proliferation)
Experiment: T cell proliferation assay, PHA-stimulated human PBMC (BrdU ELISA)
Type: cell-based
Experimental: Cell proliferation was analysed using the BrdU based cell proliferation ELISA from Roche (Mannheim, Germany) according to the manufacturer's instructions.
T Cell Proliferation Assay
Peripheral blood mononuclear cells (PBMC) from healthy human donors were isolated by centrifugation over Ficoll-Hypaque (Sigma-Aldrich, Germany) according to manufacturer's instructions. Purified PBMC were washed twice with PBS and resuspended in RPMI1640 culture medium supplemented with 10% dialyzed heat inactivated fetal calf serum, 1.5 mM L-glutamine, 100 U penicillin/ml, and […] (all from PAN Biotech, Aidenbach, Germany). For stimulation, PBMC were seeded at 1×10^5 cells/well, activated with 2 μg/ml phytohaemagglutinin (PHA, Sigma) and incubated with the test compound. After 48 hours proliferation was measured using the BrdU based cell proliferation ELISA from Roche (Mannheim, Germany) according to the manual.

[1] = human PBMC, 2 μg/ml PHA, 48 hours, BrdU, read-out: D: IC50 (Tcell proliferation)
[2] = PHA-stimulated human PBMC, 48 hours, BrdU, column D, activity classes 1-4, read-out: IC50 (Tcell proliferation)

Structure (SMILES): CCOC(=O)c1c(-c2c(F)cccc2Cl)noc1-c1cnn(-c2ccccc2F)c1C(F)(F)F [Example 42, Ethyl 3-(2-chloro-6-fluorophenyl)-5-[1-(2-fluorophenyl)-5-(trifluoromethyl)-1H-pyrazol-4-yl]isoxazole-4-carboxylate]
- IC50 [1]: 10 to 100 nM

Structure (SMILES): CNC(=S)c1c(-c2c(F)cccc2Cl)noc1-c1cnn(-c2ccc(F)cc2)c1C(F)(F)F [Example 76, 3-(2-chloro-6-fluorophenyl)-5-(1-(4-fluorophenyl)-5-(trifluoromethyl)-1H-pyrazol-4-yl)-N-methylisoxazole-4-carbothioamide]
- IC50 [1]: 1000 to 10000 nM

Structure (SMILES): COC(=O)c1c(-c2c(F)cccc2Cl)noc1-c1cnn(-c2cccc(Cl)c2Cl)c1C(F)(F)F [Example 4, methyl 3-(2-chloro-6-fluorophenyl)-5-(1-(2,3-dichlorophenyl)-5-(trifluoromethyl)-1H-pyrazol-4-yl)isoxazole-4-carboxylate]
- IC50 [1]: 1000 to 10000 nM

Structure (SMILES): COC(=O)c1c(-c2c(F)cccc2Cl)noc1-c1cnn(-c2cc(Cl)cc(Cl)c2)c1C(F)(F)F [Example 68, methyl 3-(2-chloro-6-fluorophenyl)-5-(1-(3,5-dichlorophenyl)-5-(trifluoromethyl)-1H-pyrazol-4-yl)isoxazole-4-carboxylate]
- IC50 [1]: 10 to 100 nM

Structure (SMILES): COC(=O)c1c(-c2c(F)cccc2Cl)noc1-c1cnn(C2CCS(=O)(=O)C2)c1C(F)(F)F (stereo not drawn) [Example 103, methyl 3-(2-chloro-6-fluorophenyl)-5-(1-(3-hydrazinyltetrahydrothiophene 1,1-dioxide)-5-(trifluoromethyl)-1H-pyrazol-4-yl)isoxazole-4-carboxylate]
- IC50 [1]: 100 to 1000 nM

Structure (SMILES): CCOC(=O)c1c(-c2c(Cl)cccc2Cl)noc1-c1cnn(-c2cccc(Cl)c2)c1C(F)(F)F [Example B-45, ethyl 5-(1-(3-chlorophenyl)-5-(trifluoromethyl)-1H-pyrazol-4-yl)-3-(2,6-dichlorophenyl)-isoxazole-4-carboxylate]
- IC50 [1]: < 10 nM

Structure (SMILES): Fc1ccccc1-n1ncc(-c2onc(-c3c(F)cccc3Cl)c2Br)c1C(F)(F)F [Example B-26, 4-bromo-3-(2-chloro-6-fluorophenyl)-5-(1-(2-fluorophenyl)-5-(trifluoromethyl)-1H-pyrazol-4-yl)isoxazole]
- IC50 [1]: 1000 to 10000 nM

Structure (SMILES): NNC(=O)c1c(-c2cccc(F)c2)noc1-c1cnn(-c2cccc(F)c2)c1C(F)(F)F [Example 134, 3-(3-fluorophenyl)-5-(1-(3-fluorophenyl)-5-(trifluoromethyl)-1H-pyrazol-4-yl)isoxazole-4-carbohydrazide]
- IC50 [1]: 1000 to 10000 nM

Structure (SMILES): COC(=O)c1c(-c2c(F)cccc2Cl)noc1-c1cnn(-c2cccc(F)c2)c1 [Example B-21, methyl 3-(2-chloro-6-fluorophenyl)-5-(1-(3-fluorophenyl)-1H-pyrazol-4-yl)isoxazole-4-carboxylate]
- IC50 [1]: 100 to 1000 nM

Structure (SMILES): CCOC(=O)c1c(-c2c(F)cccc2Cl)noc1-c1cnn(CCN2CCOCC2)c1C(F)(F)F [Example B-97, ethyl 3-(2-chloro-6-fluorophenyl)-5-(1-(2-morpholinoethyl)-5-(trifluoromethyl)-1H-pyrazol-4-yl)isoxazole-4-carboxylate]
- IC50 [1]: 1000 to 10000 nM

Structure (SMILES): Oc1csc(-c2c(-c3c(F)cccc3Cl)noc2-c2cnn(-c3cccc(F)c3)c2C(F)(F)F)n1 [Example I-9, 2-(3-(2-chloro-6-fluorophenyl)-5-(1-(3-fluorophenyl)-5-(trifluoromethyl)-1H-pyrazol-4-yl)isoxazol-4-yl)thiazol-4-ol]
- IC50 (Homo sapiens, 48 h, read-out: IC50 (Tcell proliferation)): 100 to 1000 nM

Structure (SMILES): O=C(c1c(-c2c(F)cccc2Cl)noc1-c1cnn(-c2ccccc2Cl)c1C(F)(F)F)N1CCCO1 [Example B-49, (3-(2-chloro-6-fluorophenyl)-5-(1-(2-chlorophenyl)-5-(trifluoromethyl)-1H-pyrazol-4-yl)isozazol-4-yl)(isoxazolidin-2-yl)methanone]
- IC50 [1]: 1000 to 10000 nM

Structure (SMILES): CCOC(=O)c1c(-c2c(F)cccc2Cl)noc1-c1cnn(-c2cccc(C#N)c2)c1C(F)(F)F [Example B-32, ethyl 3-(2-chloro-6-fluorophenyl)-5-(1-(3-cyanophenyl)-5-(trifluoromethyl)-1H-pyrazol-4-yl)isoxazole-4-carboxylate]
- IC50 [1]: 10 to 100 nM

Structure (SMILES): COC(=O)c1c(-c2ccc(OC)cc2)noc1-c1cnn(-c2cccc(F)c2)c1C(F)(F)F [Example 107, methyl 5-(1-(3-fluorophenyl)-5-(trifluoromethyl)-1H-pyrazol-4-yl)-3-(4-methoxyphenyl)isoxazole-4-carboxylate]
- IC50 [1]: 1000 to 10000 nM

Structure (SMILES): CCOC(=O)c1c(-c2onc(-c3c(F)cccc3Cl)c2C(=O)OC)cnn1-c1ccc(F)cc1 [Example 26, methyl 3-(2-chloro-6-fluorophenyl)-5-(5-(ethoxycarbonyl)-1-(4-fluorophenyl)-1H-pyrazol-4-yl)isoxazole-4-carboxylate]
- IC50 [1]: 1000 to 10000 nM

Structure (SMILES): Fc1cccc(-n2ncc(-c3onc(-c4c(F)cccc4Cl)c3Br)c2C(F)(F)F)c1 [Example 137, 4-bromo-3-(2-chloro-6-fluorophenyl)-5-(1-(3-fluorophenyl)-5-(trifluoromethyl)-1H-pyrazol-4-yl)isoxazole]
- IC50 [1]: 10 to 100 nM

Structure (SMILES): Fc1cccc(Cl)c1-c1noc(-c2cnn(-c3cccc(Cl)c3)c2C(F)(F)F)c1-c1cnco1 [Example I-8, 3-(2-chloro-6-fluorophenyl)-5-(1-(3-chlorophenyl)-5-(trifluoromethyl)-1H-pyrazol-4-yl)-4-(oxazol-5-yl)isoxazole]
- IC50 [2]: < 10 nM

Structure (SMILES): COC(=O)c1c(-c2c(F)cccc2Cl)noc1-c1cnn(-c2cc(C)nc(C)n2)c1C(F)(F)F [Example 119, methyl 3-(2-chloro-6-fluorophenyl)-5-(1-(2,6-dimethylpyrimidin-4-yl)-5-(trifluoromethyl)-1H-pyrazol-4-yl)isoxazole-4-carboxylate]
- IC50 [1]: 100 to 1000 nM

Structure (SMILES): COC(=O)c1c(-c2c(F)cccc2Cl)noc1-c1cnn(-c2ccc(OC(F)(F)F)cc2)c1C(F)(F)F [Example 33, methyl 3-(2-chloro-6-fluorophenyl)-5-(1-(4-(trifluoromethoxy)phenyl)-5-(trifluoromethyl)-1H-pyrazol-4-yl)isoxazole-4-carboxylate]
- IC50 [1]: 1000 to 10000 nM

Structure (SMILES): CCOC(=O)c1c(-c2ccncc2F)noc1-c1cnn(-c2ccncc2)c1C(F)(F)F [Example B-3, ethyl 3-(3-fluoropyridin-4-yl)-5-(1-(pyridin-4-yl)-5-(trifluoromethyl)-1H-pyrazol-4-yl)isoxazole-4-carboxylate]
- IC50 [1]: 100 to 1000 nM

Structure (SMILES): COC(=O)c1c(-c2c(F)cccc2Cl)noc1-c1cnn(-c2cccc(C#N)c2)c1C(F)(F)F [Example 12, methyl 3-(2-chloro-6-fluorophenyl)-5-(1-(3-cyanophenyl)-5-(trifluoromethyl)-1H-pyrazol-4-yl)isoxazole-4-carboxylate]
- IC50 [1]: 10 to 100 nM

Structure (SMILES): COC(=O)c1c(-c2c(F)cccc2Cl)noc1-c1cnn(-c2ccc(S(C)(=O)=O)cc2)c1C(F)(F)F [Example 85, methyl 3-(2-chloro-6-fluorophenyl)-5-(1-(4-(methylsulfonyl)phenyl)-5-(trifluoromethyl)-1H-pyrazol-4-yl)isoxazole-4-carboxylate]
- IC50 [1]: 1000 to 10000 nM

Structure (SMILES): COC(=O)c1c(-c2ccc(Cl)c(Cl)c2)noc1-c1cnn(-c2cccc(F)c2)c1C(F)(F)F [Example 97, methyl 3-(3,4-dichlorophenyl)-5-(1-(3-fluorophenyl)-5-(trifluoromethyl)-1H-pyrazol-4-yl)isoxazole-4-carboxylate]
- IC50 [1]: 1000 to 10000 nM

Structure (SMILES): CC(C)OC(=O)c1c(-c2c(F)cccc2Cl)noc1-c1cnn(-c2cccc(Cl)c2)c1C(F)(F)F [Example B-31, isopropyl 3-(2-chloro-6-fluorophenyl)-5-(1-(3-chlorophenyl)-5-(trifluoromethyl)-1H-pyrazol-4-yl)isoxazole-4-carboxylate]
- IC50 [1]: < 10 nM

Structure (SMILES): CNC(=O)c1c(-c2c(F)cccc2Cl)noc1-c1cnn(-c2cccc(Cl)c2)c1C(F)(F)F [Example 32, 3-(2-chloro-6-fluorophenyl)-5-(1-(3-chlorophenyl)-5-(trifluoromethyl)-1H-pyrazol-4-yl)-N-methylisoxazole-4-carboxamide]
- IC50 [1]: 10 to 100 nM

Structure (SMILES): COC(=O)c1c(-c2c(F)cccc2Cl)noc1-c1cnn(-c2nc(-c3ccc(F)cc3)cs2)c1C(F)(F)F [Example 54, methyl 3-(2-chloro-6-fluorophenyl)-5-(1-(4-(4-fluorophenyl)thiazol-2-yl)-5-(trifluoromethyl)-1H-pyrazol-4-yl)isoxazole-4-carboxylate]
- IC50 [1]: 1000 to 10000 nM

Structure (SMILES): Fc1cccc(Cl)c1-c1noc(-c2cnn(-c3ccncc3)c2C(F)(F)F)c1Br [Example B-83, 4-bromo-3-(2-chloro-6-fluorophenyl)-5-(1-(pyridin-4-yl)-5-(trifluoromethyl)-1H-pyrazol-4-yl)isoxazole]
- IC50 [1]: 1000 to 10000 nM

Structure (SMILES): Cc1nnc(-c2c(-c3c(F)cccc3Cl)noc2-c2cnn(-c3ccccn3)c2C(F)(F)F)s1 [IB-27, 3-(2-chloro-6-fluorophenyl)-4-(5-methyl-1,3,4-thiadiazol-2-yl)-5-(1-(pyridin-2-yl)-5-(trifluoromethyl)-1H-pyrazol-4-yl)isoxazole]
- IC50 [2]: 10 to 100 nM

Structure (SMILES): Fc1cccc(Cl)c1-c1noc(-c2cnn(-c3cccc(Cl)c3)c2C(F)(F)F)c1-c1ccoc1 [IB-7, 3-(2-chloro-6-fluorophenyl)-5-(1-(3-chlorophenyl)-5-(trifluoromethyl)-1H-pyrazol-4-yl)-4-(furan-3-yl)isoxazole]
- IC50 [2]: < 10 nM

Structure (SMILES): Fc1ccc(-n2ncc(-c3onc(-c4c(F)cccc4Cl)c3Br)c2C(F)(F)F)cc1 [Example B-28, 4-bromo-3-(2-chloro-6-fluorophenyl)-5-(1-(4-fluorophenyl)-5-(trifluoromethyl)-1H-pyrazol-4-yl)isoxazole]
- IC50 [1]: 100 to 1000 nM
